Laboratory results reported in article PMC3842914, “Meleagrin, a New FabI Inhibitor from Penicillium chryosogenum with at Least One Additional Mode of Action” (PLoS ONE, 2013).
In brackets after ≈: the same amount, converted by molar mass. Read-outs that look alike come from different tables or passages of the source.

Legend:
[1] = molecular target: T1, S. aureus FabI (Staphylococcus aureus, UniProt Q6GI75); experiment: S. aureus FabI enzyme assay (NADPH use at 340 nm, t-o-NAC thioester substrate); type: biochemical
T1 construct: made in house
T1 sequence (Q6GI75 1-256): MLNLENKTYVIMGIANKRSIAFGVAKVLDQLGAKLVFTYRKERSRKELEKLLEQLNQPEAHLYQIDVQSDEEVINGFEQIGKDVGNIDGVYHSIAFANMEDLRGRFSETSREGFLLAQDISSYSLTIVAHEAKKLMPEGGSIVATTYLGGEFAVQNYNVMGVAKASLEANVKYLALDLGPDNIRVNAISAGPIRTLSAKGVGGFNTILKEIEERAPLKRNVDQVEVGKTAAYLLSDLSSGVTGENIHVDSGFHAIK
Text: (§1) S. aureus FabI and E. coli FabI enzymes were cloned, overexpressed, and purified as described previously. The wild-type fabK gene was amplified by PCR from genomic DNA obtained from Streptococcus pneumoniae KCTC 5412 by using the primers 5′-[…]-3′ and 5′-[…]-3′, which contained NdeI and XhoI restriction sites, respectively. After the DNA sequence was confirmed, the gene was cloned into the pET22b vector (Novagen, Gibbstown, NJ, USA). The construct was transformed into E. coli BL21 (DE3) for expression following induction with isopropylthiogalactoside. The C-terminal His-tagged protein was purified as described previously. Assays were conducted in half-area, 96-well microtiter plates. The compounds were dissolved in DMSO and evaluated in 100-μL assay mixtures containing components specific for each enzyme (see below). Reduction of the trans-2-octenoyl N-acetylcysteamine (t-o-NAC thioester) substrate analog was measured spectrophotometrically following the utilization of NADH or NADPH at 340 nm at 30°C for the linear period of the assay. S. aureus FabI assays contained 50 mM sodium acetate (pH 6.5), 200 μM t-o-NAC thioester, 200 μM NADPH, and 150 nM S. aureus FabI.
(§2) NADH was used as a cofactor rather than NADPH for the E. coli FabI assay. Substrate concentrations used for the Lineweaver–Burk plot were 100, 200, 300, and 400 μM, whereas the concentrations of the cofactor were 100, 200, 400, and 600 μM. The rate of decrease in the amount of NADPH in each reaction was measured with a microtiter enzyme-linked immunosorbent assay (ELISA) reader by using the SOFTmax PRO software (Molecular Devices, Sunnyvale, CA, USA). The inhibitory activity was calculated according to the following formula: % of inhibition = 100× [1− (rate in the presence of compound/rate in the untreated control)]. IC50 values were calculated by fitting the data to a sigmoid equation. An equal volume of DMSO solvent was used for the untreated control. FabK assays contained 100 mM sodium acetate (pH 6.5), 2% glycerol, 200 mM NH4Cl, 50 µM t-o-NAC thioester, 200 µM NADH, and 150 nM S. pneumoniae FabK.

[2] = system: S. aureus RN4220; experiment: MIC by broth microdilution, S. aureus RN4220 (wild type); type: cell-based, Staphylococcus aureus; details: Staphylococcus aureus; S. aureus RN4220 (wild type)
Experimental: (§3) Whole-cell antimicrobial activity was determined by broth microdilution as described previously. The test strains except for S. pneumoniae were grown to mid-log phase in Mueller–Hinton broth and diluted 1,000-fold in the same medium. Cells (10^5/mL) were inoculated into Mueller–Hinton broth and dispensed at 0.2 mL/well into a 96-well microtiter plate. S. pneumoniae was grown in tryptic soy broth supplemented with 5% sheep blood. MICs were determined in triplicate by serial 2-fold dilutions of test compounds. […] Bacterial growth was determined by measuring the absorption at 650 nm by using a microtiter ELISA reader.

[3] = system: S. aureus RN4220 (pE194); experiment: Overexpression assay, MIC for vector-containing S. aureus RN4220 (pE194); type: cell-based; details: Staphylococcus aureus, read-out: MIC S. aureus (pE194)
Experimental: as §3
(§4) An overexpression assay using S. aureus RN4220, S. aureus RN4220 (pE194), and S. aureus RN4220 (pE194-fabI) was conducted to perform target validation of FabI inhibitors as described previously. Additionally, both fabI- and fabK-overexpressing E. coli were constructed to test a multitarget effect of the compounds. The wild-type fabI gene from the genomic DNA of E. coli W3110 was amplified by PCR by using the primers 5′-[…]-3′ and 5′-[…]-3′. The wild-type fabK gene from the genomic DNA of S. pneumoniae KCTC 5412 was amplified by PCR by using the primers 5′-[…]-3′ and 5′-[…] […]-3′. The resulting products were cloned into the pBAD-TOPO TA expression vector (Invitrogen, Carlsbad, CA, USA) to yield the pBAD-fabI and pBAD-fabK recombinant plasmids, which placed the expression of the genes fabI and fabK, respectively, under the control of the arabinose promoter. Recombinant pBAD-fabI and pBAD-fabK were then introduced into the pump-negative (tolC) E. coli EW1b via electroporation to generate E. coli EW1b (pBAD-fabI) and E. coli EW1b (pBAD-fabK), respectively.

[4] = system: S. aureus RN4220 (pE194-fabI); experiment: Overexpression assay, MIC for fabI-overexpressing S. aureus RN4220 (pE194-fabI); type: cell-based; details: Staphylococcus aureus, read-out: MIC S. aureus (pE194-fabI)
Experimental: as §3, §4

[5] = system: S. aureus RN4220; experiment: Inhibition of macromolecular biosynthesis (radiolabeled precursor incorporation) in S. aureus; type: cell-based, Staphylococcus aureus; details: drugs at 2 times the MIC
Experimental: (§5) To monitor the effects of compound 1 on lipid, DNA, RNA, protein, and cell wall biosynthesis, its effects on the incorporation of [1-^14C] acetate (50 mCi/mmol), [2-^14C] thymidine (59.8 mCi/mmol), [U-^14C] uridine (539 mCi/mmol), L-[U-^14C] leucine (306 mCi/mmol) or L-[U-^14C] isoleucine (329 mCi/mmol), and N-acetyl-D-[1-^14C] glucosamine (58.1 mCi/mmol) into S. aureus and S. pneumoniae were measured as described previously. S. aureus was exponentially grown to an A650 of 0.2 in Mueller–Hinton broth. S. pneumoniae was grown in tryptic soy broth supplemented with 5% sheep blood. […] An equal volume of DMSO solvent was added to the untreated control. After incubation with the radiolabeled precursors at 37°C for 1 h, followed by centrifugation, the cell pellets were washed twice with PBS buffer. After acetate incorporation, the total cellular lipids were extracted with chloroform-methanol-water. The incorporated radioactivity in the chloroform phase was measured by scintillation counting. For the other precursors, incorporation was terminated by adding 10% (w/v) TCA and cooling on ice for 20 min. The precipitated material was collected on Whatman GF/C glass microfiber filters, washed with TCA and ethanol, dried, and counted using a scintillation counter. The total counts incorporated at 1 h of incubation without inhibitors ranged from >7,000 for [U-^14C] uridine to <13,000 for [1-^14C] acetate. […] In all experiments, known antibacterial agents were included as positive controls.

[6] = system: S. pneumoniae KCTC 3932; experiment: Inhibition of macromolecular biosynthesis (radiolabeled precursor incorporation) in S. pneumoniae; type: cell-based, Streptococcus pneumoniae; details: drugs at 2 times the MIC
Experimental: as §5

[7] = molecular target: T1, S. aureus FabI; experiment: Fluorescence quenching assay (direct binding); details: increasing amounts of compound; FabI fluorescence at 307 nm
Experimental: Fluorescence spectra were measured using a SHIMADZU fluorescence spectrophotometer (model RF-5310PC). […] Protein quenching was monitored at 25°C by using 5-nm excitation and 5-nm emission wavelength. The excitation wavelength was 280 nm, and the emission spectra were measured between 290 and 430 nm.

[8] = molecular target: T2, E. coli FabI (Escherichia coli, UniProt P0AEK4); experiment: E. coli FabI enzyme assay (NADH as cofactor); type: biochemical
T2 construct: made in house
Text: as §1, §2

[9] = molecular target: T3, S. pneumoniae FabK (Streptococcus pneumoniae, UniProt Q9FBC5); experiment: S. pneumoniae FabK enzyme assay; type: biochemical
T3 sequence (Q9FBC5 1-324): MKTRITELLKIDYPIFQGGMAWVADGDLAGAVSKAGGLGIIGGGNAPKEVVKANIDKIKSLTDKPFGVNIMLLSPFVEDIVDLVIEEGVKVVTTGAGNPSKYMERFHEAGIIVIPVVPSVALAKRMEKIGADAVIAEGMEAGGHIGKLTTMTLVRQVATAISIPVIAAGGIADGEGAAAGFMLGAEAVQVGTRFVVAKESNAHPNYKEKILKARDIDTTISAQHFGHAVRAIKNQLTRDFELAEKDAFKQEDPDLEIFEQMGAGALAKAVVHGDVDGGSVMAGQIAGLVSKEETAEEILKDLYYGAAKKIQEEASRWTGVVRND
Text: as §1, §2

[10] = system: E. coli KCTC 1924; experiment: MIC by broth microdilution, E. coli KCTC 1924; type: cell-based; details: Escherichia coli, KCTC1924, read-out: MIC E. coli
Experimental: as §3

[11] = system: S. pneumoniae KCTC 3932; experiment: MIC by broth microdilution, S. pneumoniae KCTC 3932; type: cell-based; details: Streptococcus pneumoniae, KCTC3932, read-out: MIC S. pneumoniae
Experimental: as §3

[12] = system: E. coli EW1b; experiment: Overexpression assay, MIC for pump-negative (tolC) E. coli EW1b; type: cell-based; details: Escherichia coli
Experimental: as §3, §4

[13] = system: E. coli EW1b(pBAD); experiment: Overexpression assay, MIC for vector-containing E. coli EW1b (pBAD); type: cell-based; details: Escherichia coli
Experimental: as §3, §4

[14] = system: E. coli EW1b(pBAD-fabI); experiment: Overexpression assay, MIC for fabI-overexpressing E. coli EW1b (pBAD-fabI); type: cell-based; details: Escherichia coli
Experimental: as §3, §4

[15] = system: E. coli EW1b(pBAD-fabK); experiment: Overexpression assay, MIC for fabK-overexpressing E. coli EW1b (pBAD-fabK); type: cell-based; details: Escherichia coli
Experimental: as §3, §4

T2 sequence (P0AEK4 whole entry): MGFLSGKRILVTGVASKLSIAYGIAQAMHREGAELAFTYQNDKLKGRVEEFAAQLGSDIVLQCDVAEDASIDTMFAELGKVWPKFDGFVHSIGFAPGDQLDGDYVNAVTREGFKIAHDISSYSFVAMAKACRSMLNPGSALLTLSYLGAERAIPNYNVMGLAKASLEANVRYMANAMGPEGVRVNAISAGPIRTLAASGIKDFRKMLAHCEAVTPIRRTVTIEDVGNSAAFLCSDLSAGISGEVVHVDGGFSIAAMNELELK

Work on `CCn1cc(C(=O)O)c(=O)c2cc(F)c(N3CCNCC3)cc21` [Norfloxacin, reference compound] yielded an IC50 ([1]; S. aureus FabI, read-out: IC50 saFabI) greater than 100 µM, an MIC [2] of 1 µg/mL (≈ 3.13 µM) and an MIC [3] of 1 µg/mL (≈ 3.13 µM). For the same molecule, the MIC [4] was 1 µg/mL (≈ 3.13 µM), the “Inhibition of precursor incorporation, [2-14C] Thymidine” value [5] was 79% and the “Inhibition of precursor incorporation, [2-14C] Thymidine” value [6] was 83%.
`Cc1onc(-c2ccccc2)c1C(=O)N[C@@H]1C(=O)N2[C@@H]1SC(C)(C)[C@@H]2C(=O)O` [Oxacillin, reference compound] showed an IC50 [1] greater than 100 µM, an MIC [2] of 0.25 µg/mL (≈ 0.623 µM) and an MIC [3] of 0.25 µg/mL (≈ 0.623 µM). The MIC [4] was 0.25 µg/mL (≈ 0.623 µM).
For `NC[C@H]1O[C@H](O[C@H]2[C@H](O)[C@@H](O[C@H]3O[C@H](CO)[C@@H](O)[C@H](N)[C@H]3O)[C@H](N)C[C@@H]2N)[C@H](O)[C@@H](O)[C@@H]1O` [kanamycin, reference compound], the “Fluorescence quenching of S. aureus FabI” value [7] was “did not”.
`C=CC(C)(C)C12C=C(O)C(=O)N3/C(=C/c4cnc[nH]4)C(=O)NC31Nc1ccccc12` (stereo not drawn) [Compound 2, glandicolin A] gave an IC50 [1] of 54.6 µM, an IC50 [8] of 49.7 µM and an IC50 [9] greater than 200 µM. It also gave an MIC [2] of 64 µg/mL (≈ 159 µM), an MIC [10] of 64 µg/mL (≈ 159 µM) and an MIC [11] of 64 µg/mL (≈ 159 µM).
With `CN[C@H](CC(C)C)C(=O)N[C@H]1C(=O)N[C@@H](CC(N)=O)C(=O)N[C@H]2C(=O)N[C@H]3C(=O)N[C@H](C(=O)N[C@H](C(=O)O)c4cc(O)cc(O)c4-c4cc3ccc4O)[C@H](O)c3ccc(c(Cl)c3)Oc3cc2cc(c3O[C@@H]2O[C@H](CO)[C@@H](O)[C@H](O)[C@H]2O[C@H]2C[C@](C)(N)[C@H](O)[C@H](C)O2)Oc2ccc(cc2Cl)[C@H]1O` [vancomycin, reference compound] the “Inhibition of precursor incorporation, N-Acetyl-D-[1-14C] Glucosamine” value [5] was 79% and the “Inhibition of precursor incorporation, N-Acetyl-D-[1-14C] Glucosamine” value [6] was 88%.
In the case of `CC1(C)S[C@@H]2[C@H](NC(=O)[C@H](N)c3ccccc3)C(=O)N2[C@H]1C(=O)O` [Ampicillin], the MIC ([12]; read-out: MIC E. coli EW1b (+) Ara) is reported as 1 µg/mL (≈ 2.86 µM), the MIC ([12]; read-out: MIC E. coli EW1b (−) Ara) is reported as 1 µg/mL (≈ 2.86 µM) and the MIC ([13]; read-out: MIC E. coli EW1b(pBAD) (+) Ara) is reported as greater than 125 µg/mL. For the same molecule, the MIC ([13]; read-out: MIC E. coli EW1b(pBAD) (−) Ara) was greater than 125 µg/mL, the MIC ([14]; read-out: MIC E. coli EW1b(pBAD-fabI) (+) Ara) was greater than 125 µg/mL and the MIC ([14]; read-out: MIC E. coli EW1b(pBAD-fabI) (−) Ara) was greater than 125 µg/mL. The MIC ([15]; read-out: MIC E. coli EW1b(pBAD-fabK) (+) Ara) was greater than 125 µg/mL and the MIC ([15]; read-out: MIC E. coli EW1b(pBAD-fabK) (−) Ara) was greater than 125 µg/mL.
